The conditions of data set [1]: ordinary relative humidity conditions; cited from earlier work.
A short description of data set [2]: Exposure of wet material to the air at RT covered with paper, polymorph of the sample. Type of data set: physicochemical. Here is the method:
The wet material was exposed to the air at RT covered with paper (for protection).
A first portion of the wet material was stirred in 5 v of acetonitrile at 75° C. for 2 h, then filtrated under vacuum. The polymorphism of the wet sample was Hemihydrate. A second portion of the wet material was exposed to the air at RT covered with paper (for protection).
After a few hours the polymorph of the wet samples was Hemihydrate.

The nature of data set [3]: Storage of crystal forms in a closed or open bottle at RT, conversion to hemihydrate by absorption of atmospheric water. Type of data set: physicochemical. The conditions noted are these: sample kept in an open bottle. An excerpt:
Another embodiment of the invention is a method for preparing a levofloxacin hemihydrate comprising storing one or more forms selected from the group consisting of Forms A, B, C, F, G, and H for an amount of time sufficient for the one or more forms to convert to a levofloxacin hemihydrate by the absorption of atomospheric water. For example, Forms A, B, C, F, G and H were converted to hemihydrate after 7-29 days of storing in a closed bottle at RT. The conversion to hemihydrate was faster (about 24 h) when keeping the sample in an open bottle.

Take `C[C@H]1COc2c(N3CCN(C)CC3)c(F)cc3c(=O)c(C(=O)O)cn1c23` [Form γ, levofloxacin]: the “form obtained after rapid adsorption of water vapor” value in data set [1] was “hemihydrate”.

As for `C[C@H]1COc2c(N3CCN(C)CC3)c(F)cc3c(=O)c(C(=O)O)cn1c23` [Form H, levofloxacin], the “polymorph of the wet sample after exposure to the air” value in data set [2] (after 3, 6, 9 hours (Example 12)) is recorded as “Form G”; in data set [2] (after 24 hours (Example 12)) it was “hemihydrate polymorph”; in data set [2] (after a few hours (Example 13)), “Hemihydrate”.

Take `C[C@H]1COc2c(N3CCN(C)CC3)c(F)cc3c(=O)c(C(=O)O)cn1c23` [form α, levofloxacin]: in data set [1], the “form obtained after rapid adsorption of water vapor” value is on record as “monohydrate”.

With `C[C@H]1COc2c(N3CCN(C)CC3)c(F)cc3c(=O)c(C(=O)O)cn1c23` [Form A, levofloxacin], the “time of conversion to hemihydrate” value in data set [3] is reported as “about 24 h”.

The values above are taken from patent publication US7629458B2, “Preparation of levofloxacin and hemihydrate thereof” (Teva Pharmaceutical Industries Ltd., priority 2001, dated 2009).
